Measurements taken from PubChem BioAssay AID2423 (Broad Institute, 2010).
Records with an inconclusive call do not appear. The source made the active and inactive calls. How the calls were made is not given here.

Each compound was assayed on C. albicans CaCi-8 + fluconazole, Alamar Blue growth, 48 h (assay: resistant C. albicans growth inhibition with fluconazole, dose response, CaCi-8 strain, Alamar Blue fluorescence (AID 2423)).

Compound	EC50
O=C(NCCCc1ccccc1)Nc1cccc(Cl)c1	11200 nM
O=C(COc1ccc([N+](=O)[O-])cc1)NNC(=S)NC(=O)c1ccc(Br)cc1	2540 nM
Cc1ccc(O)c(C2=NNC(c3ccc(Cl)cc3)C2)c1 (stereo not given)	395 nM
O=C(Oc1cc2oc(=O)cc(-c3ccccc3)c2cc1Cl)C1CCCCC1	1200 nM
C[C@@H]1CC[C@@]2(NC1)O[C@H]1C[C@H]3[C@@H]4CC=C5C[C@@H](O)CC[C@]5(C)[C@H]4CC[C@]3(C)[C@H]1[C@@H]2C	132 nM
COc1ccc(-c2nnc(NC(=O)c3ccc(F)cc3)o2)cc1	246 nM
CC(C)c1ccc2c(c1)C(N1CCNCC1)Cc1ccc(F)cc1S2 (stereo not given)	7170 nM
COc1ccc(-c2cc(C(=O)NNC(=S)NC(=O)c3c(-c4ccccc4)noc3C)[nH]n2)cc1	2460 nM
Oc1ccc(N=Nc2ccc3c(c2)OCCO3)c2cccnc12	804 nM
Cc1cccc(-n2c(SCc3cc(=O)n4ccsc4n3)nc3ccccc32)c1	> 15000 nM (inactive)
Oc1c(C(c2ccccn2)N2CCC(Cc3ccccc3)CC2)cc(Cl)c2cccnc12 (stereo not given)	1880 nM
Cc1ccc(S(=O)(=O)CCC(=O)Nc2nc(-c3ccncc3)cs2)cc1	2140 nM
CCc1ccc(C2c3[nH]c4ccccc4c3CCN2C(=O)c2ccc(=O)n(C)n2)cc1 (stereo not given)	339 nM
COc1cccc(COc2cc3ccccc3nc2C)c1	1060 nM
c1ccc2c(c1)CCN(c1ncnc3c1[nH]c1ccccc13)C2	558 nM
CC(C)=CCc1cc2c(=O)c3c(O)c4c(cc3oc2c(O)c1O)OC(C)C4(C)C (stereo not given)	6360 nM
Cc1cccc(/C=C/C(=O)c2cc(Br)ccc(=O)c2O)c1	987 nM
CC(=O)N1CCOCCOCCN(C(C)=O)CCOCCOCC1	> 15000 nM (inactive)
CCNC(=S)NNC(=O)c1cc(-c2ccccc2C)nc2ccccc12	1410 nM
Cc1ccc(NC(=O)NNC(=O)c2cc3ccccc3cc2O)c(C)c1	> 15000 nM (inactive)
Cc1ccc(-n2c(Cc3ccccc3)n[nH]c2=S)c(C)c1	803 nM
COc1ccc(/C=C(/NC(=O)c2ccccc2)c2nc3ccc(Cl)cc3[nH]2)cc1OC	2660 nM
O=C(NC(=S)Nn1cnc2c(cnn2-c2ccccc2)c1=O)c1ccc(Cl)cc1	4150 nM
Oc1c(C(c2ccccc2Cl)N2CCCC2)ccc2cccnc12 (stereo not given)	1250 nM
CCOC(=O)c1[nH]c2ccc(F)cc2c1NC(=O)c1ccccc1C(=O)O	> 15000 nM (inactive)
O=C(N/N=C/c1sc2ccccc2c1O)c1cccc2ccccc12	1580 nM
Cc1ccc(Nc2nc(Cl)nc(NC(C)(C)C)n2)cc1	2620 nM

Compound	EC50
O=C(/C=C/c1ccc(F)cc1)N1CCN(c2ccccn2)CC1	800 nM
NC(=O)c1ccc(Nc2nnc(-c3ccc(O)cc3)c3ccccc23)cc1	7930 nM
Oc1cccc2ccc(Nc3ccccn3)nc12	2350 nM
CS/C(=N\S(=O)(=O)c1cccs1)Nc1ccc(F)c(Cl)c1	1890 nM
COc1ccc(-c2n[nH]c(C)c2-c2cnn(-c3ccccc3)c2)c(O)c1	9760 nM
CC[n+]1c(C=C2C=C(C)OC(C)=C2)sc2ccccc21	2080 nM
Oc1c(C(c2ccccn2)N2CCOCC2)ccc2cccnc12 (stereo not given)	4860 nM
c1ccc(CN2CCc3nc4ccccc4cc3C2)cc1	> 16000 nM (inactive)
O=C(Nc1ccc(N=Nc2ccccc2)c(NC(=O)C2CCCO2)c1)C1CCCO1 (stereo not given)	4770 nM
Oc1nc(Nc2ccccc2)sc1/C=C1\C=Nc2ccccc21	1630 nM
O=C(c1ccc(Cn2c(=S)[nH]c3ccccc3c2=O)cc1)N1CCN(c2ccccn2)CC1	695 nM
O=C(N/N=C\c1c(O)ccc2ccccc12)c1cncc(Br)c1	689 nM
O=c1c2cc(Br)ccc2nc(-c2ccc([N+](=O)[O-])cc2)n1O	1140 nM
O=C(N/N=C/c1c(O)n(CCC2=CCCCC2)c(=S)[nH]c1=O)c1ccccc1	10700 nM
Cc1cc(Nc2ccc(Cl)cc2)nc(NCc2ccccc2)n1	5160 nM
COC(=O)c1cc(C)sc1NC(=O)c1cccnc1	5890 nM
O=C(CNc1ccccc1F)N/N=C/C1CC=CCC1 (stereo not given)	> 16000 nM (inactive)
CCN(CC)c1ccc(/C=C/C(=O)c2cccnc2)cc1	< 120 nM
CCN(CC)c1ccc(/C=N/Nc2nc3ccccc3[nH]2)c(O)c1	621 nM
OCc1ccnc2c(O)cccc12	> 16000 nM (inactive)
Oc1c(CN2CCN(c3ccc(F)cc3)CC2)cc(Cl)c2cccnc12	572 nM
Cc1cc(C)cc(OCC(=O)NNC(=S)NC(=O)C2CC2)c1	646 nM
COc1ccc(C)cc1Nc1n[n+](-c2ccccc2)c(-c2ccc(N(C)C)cc2)s1	3710 nM
COc1ccc(-n2c(-c3ccc(Br)cc3)c[n+]3c2SC(C)C3)cc1 (stereo not given)	6770 nM
CCCOc1cccc(C(=O)N/N=C/c2coc3ccccc3c2=O)c1	> 15000 nM (inactive)
CCCCOc1cccc(C(=O)NNC(=S)NC2CCCCC2)c1	8740 nM
Cc1[nH]n(-c2ccccc2)c(=O)c1/C=N/Nc1nncc(-c2ccccc2)n1	2670 nM

Compound	EC50
CCCCOP(=O)(c1ccc(N(C)C)cc1)C(O)c1ccccc1F (stereo not given)	4660 nM
CCC(=O)NC(c1ccc(OC)cc1)c1cc(Cl)c2cccnc2c1O (stereo not given)	976 nM
N#Cc1cc(C#N)c(N2CCN(c3cccc(Cl)n3)CC2)nc1N	1580 nM
CC(C)=CCc1c2c(c(O)c3c(=O)c4c(oc13)-c1cc(O)c(O)cc1OC4C=C(C)C)C=CC(C)(C)O2 (stereo not given)	13000 nM
C/C(=N\NC(=O)c1cc(-c2cccs2)nc2ccccc12)c1ccccn1	1820 nM
COc1cc(OC)cc(-c2nnc(Nc3nc4c(F)cccc4s3)o2)c1	> 15000 nM (inactive)
O=C(c1cc2c(s1)CCCCC2)N1CCN(c2ncccn2)CC1	135 nM
CCC(=O)NC(c1cccs1)c1cc([N+](=O)[O-])c2cccnc2c1O (stereo not given)	633 nM
O=C(/C=C\c1ccc(-c2cccc([N+](=O)[O-])c2)o1)N1CCOCC1	3100 nM
O=c1c(Cl)c(NCCCO)cnn1-c1nc2ccccc2[nH]1	> 15000 nM (inactive)
CSCCC1NC2(C(=O)Nc3c(C)cc(Cl)cc32)[C@@H]2C(=O)N(C3CCCC3)C(=O)[C@H]12 (stereo not given in full)	10100 nM
Cn1c(-c2c(N)n(CCc3ccccc3)c3nc4ccccc4nc23)nc2ccccc21	6180 nM
O=C(N/N=C/c1ccccn1)c1cc(-c2ccc(Cl)cc2)nc2ccccc12	4330 nM
O=S(=O)(Cc1ccccc1)N1CCc2ccccc21	10900 nM
O=C(c1cc2ccccc2cc1O)N1CCN(c2ccccc2O)CC1	209 nM
CN(C)S(=O)(=O)Oc1cccc(C(=O)Nc2cccc(Cl)c2)c1	1350 nM
CSc1cnc2c(N)nc(N(C)C)nc2n1	12400 nM
NC(=S)n1[nH]c(-c2ccc([N+](=O)[O-])cc2)c(N=Nc2cccc([N+](=O)[O-])c2)c1=O	2830 nM
CCCOC(c1ccccc1)(c1ccc(C(F)(F)F)cc1)C(Oc1nc(C)cc(C)n1)C(=O)O (stereo not given)	6470 nM
O=C(Nc1ccc(NC(=O)c2cccs2)cc1)c1ccc(Br)o1	9960 nM
CC(OC(=O)c1oc2ccccc2c1COc1ccccc1)C(N)=O (stereo not given)	> 16000 nM (inactive)
Nc1ccc(C(=O)N/N=C\c2ccc(OC(=O)c3ccccc3Cl)cc2)cc1	431 nM
COc1cc(OC)cc(C(=O)NNC(=O)c2cc3ccccc3cc2O)c1	9180 nM
CC1CCCCN1S(=O)(=O)c1ccc(NC(=O)c2cccc(-n3cnnn3)c2)cc1 (stereo not given)	> 15000 nM (inactive)
COc1ccc(NC(=O)Nc2nc3c(s2)CCCC3)cc1	2740 nM
Cc1[nH]c2ccccc2c1/C=C/c1cc[n+](C)cc1	7180 nM
